# Source: patent US20090053138A1, “Stabilized Aptamers to Platelet Derived Growth Factor and their Use as Oncology Therapeutics” (priority 2002, published 2009)
# {PEG40k} = 40 kDa polyethylene glycol; [invdT] = inverted (3'-3') thymidine; [HEG] = hexaethylene glycol spacer
# Columns and labels:
# [1] = target: T1, rat PDGF-BB (Rattus norvegicus, UniProt Q05028); assay: Cell migration assay, 3T3 cells; format: cell-based; conditions: 100 nM aptamer, 5 nM PDGF BB, 24 well format
# T1 construct: purchased PeproTech, Rocky Hill, N.J
# Protocol: PDGF is a strong mitogen as well as a chemoattractant. […] In the cell migration assay 80,000 cells 3T3 rat fibroblasts (ATCC, Manassas, Va.) or RPE (retinal pigmented epithelial) cells (ATCC, Manassas, Va.) were plated per well into a 24 well plate with 8 micron filters (BD Biosciences, Discovery Labware, Bedford, Mass.). 0.5 ml DMEM/0.2% FCS was added to the top chamber and 0.8 ml DMEM/0.2% FCS was added to the bottom chamber. The system was equilibrated by incubating for 4 hours at 37 degrees celsius. Human PDGF-BB (PeproTech, Rocky Hill, N.J.) (for RPE cells) or rat PDGF-BB (PeproTech) (for 3T3 cells) was added to the bottom chamber (0 ng/ml-100 ng/ml final concentration). The system was incubated 4 hours to 12 hours. Cells were scraped off on the top of filter with a Q-tip. The cells that migrated to the bottom of the filter were fixed with a mixture of cold 50% Methanol/50% Acetone for 3 minutes.
# Following incubation filters were washed with 1×PBS and stained with Giemsa Stain (Matheson Coleman and Bell) for 1-2 hours and migration was visualized by taking pictures on a Zeiss Axiovert 200M microscope.
# [2] = target: PDGF BB (Homo sapiens, UniProt P01127); assay: 3T3 cell proliferation assay (PDGF-BB induced); format: cell-based, rat; design: purchased PeproTech, Rocky Hill, N.J
# Protocol: 3T3 cells, a rat fibroblast cell line (ATCC, Manassas, Va.), were plated 3,000 cells/well in a 96 well plate one day prior to the start of the assay in 100 ul DMEM/10% FCS. The following day, cells were washed once with straight DMEM and then 75 ul DMEM/0.8% FCS was added to each well. […] Cells were incubated for 3 days. Following incubation 10 ul MTT (Promega, Madison, Wis.) was added to each well and incubated for an additional 1.5 hours. Media was then removed, 200 ul Isopropanol (2-propanol) was added to each well, cells were re-suspended thoroughly and absorbance at 570 nm was read on a 96 well plate reader.
# (§1) 3T3 cells, which are derived from a rat fibroblast cell line (ATCC, Manassas, Va.), were used in a proliferation assay to test potency of modified ARC513 aptamers. 3T3 fibroblast cells have PDGF receptors on their cell-surface and respond to mitogen, e.g., PDGF stimulation by proliferation. The assay was performed as follows: 3T3 cells were plated 3,000 cells/well in a 96 well plate one day prior to the start of the assay in 100 ul DMEM/10% FCS. The following day, cells were washed once with straight DMEM and then 75 ul DMEM/0.8% FCS was added to each well. Then 25 ul of PDGF-BB (PeproTech, Rocky Hill, N.J.) at a 50 ng/ml final concentration was added to each well +/− aptamer condition to be tested. […] The functional PDGF aptamer dilutions usually consisted of 6 points in 2-fold serial dilutions.
# (§2) Cells were incubated for 3 days. Following incubation 10 ul MTT (Promega, Madison, Wis.) was added to each well and incubated for an additional 1.5 hours. Media was removed, 200 μl Isopropanol (2-propanol) was added to each well, cells were re-suspended thoroughly and absorbance at 570 nm was read on a 96 well plate reader. The present example depicts the potency comparison of PDGF aptamer ARC: 513 to that of ARC 513 variants.
# The 3T3 proliferation assay previously described was used to test potency of all PEG conjugated ARC513 variants described immediately above. The assay was performed as follows: 3T3 cells were plated 3,000 cells/well in a 96 well plate one day prior to the start of the assay in 100 ul DMEM/10% FCS. The following day, cells were washed once with straight DMEM and then 75 ul DMEM/0.8% FCS was added to each well. Then 25 ul of PDGF-BB (PeproTech, Rocky Hill, N.J.) at a 50 ng/ml final concentration was added to each well +/− aptamer condition to be tested. […] The functional PDGF aptamer dilutions usually consisted of 6 points in 2-fold serial dilutions.
# as §2, with “ARC513” for “ARC: 513”, “PEGylated ARC513 aptamers.” for “ARC 513 variants.”
# as §1, with “3T3” for “3T3 cells, which are derived from a rat fibroblast cell line (ATCC, Manassas, Va.), were used in a proliferation assay to test potency of modified ARC513 aptamers. 3T3”, “100 μl” for “100 ul”
# as §2, with “[…]” for “μl”, “reader.” for “reader. The present example depicts the potency comparison of PDGF aptamer ARC: 513 to that of ARC 513 variants.”
# Sequence of PDGF BB (P01127 82-190 limits assumed): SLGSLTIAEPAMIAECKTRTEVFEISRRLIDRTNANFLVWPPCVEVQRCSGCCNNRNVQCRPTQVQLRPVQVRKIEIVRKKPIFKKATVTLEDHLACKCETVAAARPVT
# T1 sequence (Q05028 66-174 limits assumed): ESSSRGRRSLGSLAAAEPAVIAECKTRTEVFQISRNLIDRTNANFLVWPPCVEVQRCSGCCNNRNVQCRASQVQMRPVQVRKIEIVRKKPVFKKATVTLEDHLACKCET
Substance,migration of 3T3 cells [1],effect on 3T3 cell proliferation ([2]; scrambled control),concentration reducing the PDGF driven increase in proliferation to background levels [2] [nM],potency compared to PDGF neutralizing polyclonal antibody [2],potency of legacy aptamers vs newly synthesized ([2]; after lyophilization and storage at −20 degrees celsius for 2 years),effect of 5′ conjugation to 30 kDa and 40 kDa PEG groups on in vitro activity ([2]; relative to ARC126)
"5′-(SEQ ID NO.4)-HEG-(SEQ ID NO:5)-HEG-(SEQ ID NO:6)-3 (chain 1 CAGCGUACG; chain 2 CGTACCGATUCA; chain 3 TGAAGCUG; HEG spacers joining pieces; synthetic aptamer; modified_base (4)..(4) cytidine is 2′-fluoro; modified_base (5)..(5) gm; modified_base (6)..(6) uridine is 2′-fluoro; modified_base (8)..(8) cytidine is 2′-fluoro; modified_base (9)..(9) gm; modified_base (7)..(7) gm; modified_base (10)..(10) uridine is 2′-fluoro; modified_base (11)..(11) cytidine is 2′-fluoro; modified_base (12)..(12) adenosine is 2′-O-Methyl; modified_base (6)..(6) cytidine is 2′-fluoro; modified_base (7)..(7) uridine is 2′-fluoro; modified_base (8)..(8) gm) [ARC128, reference compound]",no activity,never displays an effect,,,,
"5′-[40 K PEG]-(SEQ ID NO:1)-HEG-(SEQ ID NO:2)-HEG-(SEQ ID NO:3)-3′-dT-3′ (chain 1 CAGGCUACG; chain 2 CGTAGAGCAUCA; chain 3 TGATCCUG; piece 1: 2'-fluoro at 6, 8, 2'-O-methyl at 9, 5' {PEG40k}, 3' [HEG], other sugars and backbone not given here; piece 2: 2'-O-methyl at 5, 7, 12, 2'-fluoro at 10, 11, 3' [HEG], other sugars and backbone not given here; piece 3: 2'-fluoro at 5, 6, 7, 2'-O-methyl at 8, 3' [invdT], other sugars and backbone not given here) [ARC127]",inhibits the effects of 5 nM PDGF-BB,,30,better potency,just as potent,does not significantly reduce the in vitro activity
